Laboratory results as given in patent US20220289753A1, “SHP2 INHIBITORS” (IRBM S.P.A., priority 2019, published 2022).

Experiments:
[1] = biological target: T1, SHP-2 enzyme (Met1-Leu525) (Homo sapiens, UniProt Q06124); assay: SHP2 inhibition enzymatic assay (DiFMUP substrate, IRS1 peptide activation); assay type: biochemical; details: SHP2 wt; activated by 500 nM IRS1 peptide; 75 μM DiFMUP substrate
T1 construct: synthetized by Origene, Met1-Leu525, cat #TP750155; purchased Origene TP750155
T1 sequence (Q06124 1-525): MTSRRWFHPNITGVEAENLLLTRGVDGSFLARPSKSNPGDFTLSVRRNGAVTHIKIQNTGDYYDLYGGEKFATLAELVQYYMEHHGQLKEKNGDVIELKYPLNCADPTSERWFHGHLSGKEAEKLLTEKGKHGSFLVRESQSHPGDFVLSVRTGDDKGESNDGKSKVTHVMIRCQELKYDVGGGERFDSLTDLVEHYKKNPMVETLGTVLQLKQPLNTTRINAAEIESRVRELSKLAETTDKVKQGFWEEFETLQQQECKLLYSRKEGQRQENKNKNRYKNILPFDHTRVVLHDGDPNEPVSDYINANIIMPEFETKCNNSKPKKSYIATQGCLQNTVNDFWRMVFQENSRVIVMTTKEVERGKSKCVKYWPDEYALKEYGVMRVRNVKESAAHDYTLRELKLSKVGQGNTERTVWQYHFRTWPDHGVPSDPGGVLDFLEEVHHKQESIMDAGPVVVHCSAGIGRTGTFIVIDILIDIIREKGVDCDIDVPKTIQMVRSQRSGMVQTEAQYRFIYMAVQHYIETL
In short: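 SHP-2 (Met1-Leu525, 0.5 nM final) preincubated 30 min with compounds and IRS1 activating peptide in HEPES pH 7.2 buffer with NaCl, KCl, EDTA, tween-20, 5 mM DTT. DiFMUP then added for 30 min at room temperature and fluorescence read. IC50 from four-parameter logistic fit of % inhibition.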

[2] = system: ERK phosphorylation in KYSE-520 cells; assay: Phospho-ERK cellular assay (Advanced phospho-ERK1/2 (Thr202/Tyr204) TR-FRET kit); assay type: cell-based; details: Homo sapiens, KYSE-520, 2 h, KYSE-520 cells, 2 h at 37° C., TR-FRET; read-out: pERK IC50
In short: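 KYSE-520 cells were treated 2 h at 37° C with serially diluted compounds, then lysed. Phospho-ERK1/2 (Thr202/Tyr204) was detected by TR-FRET after overnight antibody incubation at room temperature. IC50 came from a four-parameter logistic fit; lower signal reflects greater SHP2 inhibition.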

Row | SMILES | IC50 [1] [µM] | IC50 [2] [µM]
1 | CN1C(=O)COc2c(Sc3cnc4nc(N5CCC6(CC5)Cc5ccccc5[C@H]6N)[nH]c4n3)cccc21 [Example 173, (S)-8-((2-(1-amino-1,3-dihydrospiro[indene-2,4′-piperidin]-1′-yl)-1H-imidazo[4,5-b]pyrazin-6-yl)thio)-4-methyl-2H-benzo[b][1,4]oxazin-3(4H)-one] | < 0.5 | 1 to 5
2 | N[C@@H]1c2ccccc2OC12CCN(c1nc3nc(Sc4ccnc(NC5CC5)c4Cl)cnc3[nH]1)CC2 [Example 174, (R)-1′-(5-((3-chloro-2-(cyclopropylamino)pyridin-4-yl)thio)-1H-imidazo[4,5-b]pyrazin-2-yl)-3H-spiro[benzofuran-2,4′-piperidin]-3-amine] | < 0.5 | < 1
3 | Nc1nccc(Sc2cnc3nc(N4CCC5(CC4)Cc4ccc(F)cc4[C@H]5N)[nH]c3n2)c1Cl [Example 175, (S)-1′-(6-((2-amino-3-chloropyridin-4-yl)thio)-1H-imidazo[4,5-b]pyrazin-2-yl)-6-fluoro-1,3-dihydrospiro[indene-2,4′-piperidin]-1-amine] | < 0.5 | < 1
4 | N[C@@H]1c2ccccc2CC12CCN(c1nc3ncc(Sc4ccnc(N5CCOCC5)c4Cl)nc3[nH]1)CC2 [Example 180, (S)-1′-(5-((3-chloro-2-morpholinopyridin-4-yl)thio)-1H-imidazo[4,5-b]pyrazin-2-yl)-1,3-dihydrospiro[indene-2,4′-piperidin]-1-amine] | < 0.5 | < 1
5 | COC1CN(c2nccc(Sc3cnc4nc(N5CCC6(CC5)Cc5ccccc5[C@H]6N)[nH]c4n3)c2Cl)C1 [Example 181, (S)-1′-(5-((3-chloro-2-(3-methoxyazetidin-1-yl)pyridin-4-yl)thio)-1H-imidazo[4,5-b]pyrazin-2-yl)-1,3-dihydrospiro[indene-2,4′-piperidin]-1-amine] | < 0.5 | > 5
6 | COc1cnccc1Sc1cnc2nc(N3CCC4(CC3)Cc3ccc(F)cc3[C@H]4N)[nH]c2n1 [Example 182] | < 0.5 | < 1
7 | N[C@@H]1c2cc(F)ccc2CC12CCN(c1nc3ncc(Sc4cccc5c4OCCN5)nc3[nH]1)CC2 [Example 184, (S)-1′-(6-((3,4-dihydro-2H-benzo[b][1,4]oxazin-8-yl)thio)-1H-imidazo[4,5-b]pyrazin-2-yl)-6-fluoro-1,3-dihydrospiro[indene-2,4′-piperidin]-1-amine] | < 0.5 | < 1
8 | COc1cc2c(cc1F)[C@@H](N)C1(CCN(c3nc4ncc(Sc5ccncc5Cl)nc4[nH]3)CC1)C2 [Example 186, (S)-1′-(6-((3-chloropyridin-4-yl)thio)-1H-imidazo[4,5-b]pyrazin-2-yl)-6-fluoro-5-methoxy-1,3-dihydrospiro[indene-2,4′-piperidin]-1-amine] | < 0.5 | < 1
9 | N[C@@H]1c2cc(F)ccc2CC12CCN(c1nc3ncc(Sc4ccncc4F)nc3[nH]1)CC2 [Example 187, (S)-6-fluoro-1′-(6-((3-fluoropyridin-4-yl)thio)-1H-imidazo[4,5-b]pyrazin-2-yl)-1,3-dihydrospiro[indene-2,4′-piperidin]-1-amine] | < 0.5 | < 1
10 | Nc1nccc(Sc2cnc3[nH]c(N4CCC5(CC4)Cc4cc(F)c(F)cc4[C@H]5N)nc3n2)c1Cl [Example 188, (S)-1′-(5-((2-amino-3-chloropyridin-4-yl)thio)-1H-imidazo[4,5-b]pyrazin-2-yl)-5,6-difluoro-1,3-dihydrospiro[indene-2,4′-piperidin]-1-amine] | < 0.5 | < 1
11 | N[C@@H]1c2cc(F)c(F)cc2CC12CCN(c1nc3nc(Sc4ccnc(NC5CC5)c4Cl)cnc3[nH]1)CC2 [Example 189, (S)-1′-(5-((3-chloro-2-(cyclopropylamino)pyridin-4-yl)thio)-1H-imidazo[4,5-b]pyrazin-2-yl)-5,6-difluoro-1,3-dihydrospiro[indene-2,4′-piperidin]-1-amine] | < 0.5 | < 1
12 | COc1c(Sc2cnc3nc(N4CCC5(CC4)Cc4ccc(F)cc4[C@H]5N)[nH]c3n2)ccnc1N [Example 190, (S)-1′-(6-((2-amino-3-methoxypyridin-4-yl)thio)-1H-imidazo[4,5-b]pyrazin-2-yl)-6-fluoro-1,3-dihydrospiro[indene-2,4′-piperidin]-1-amine] | < 0.5 | < 1
13 | N#CC1CN(c2nccc(Sc3cnc4[nH]c(N5CCC6(CC5)Cc5ccccc5[C@H]6N)nc4n3)c2Cl)C1 [Example 191, (S)-1-(4-((2-(1-amino-1,3-dihydrospiro[indene-2,4′-piperidin]-1′-yl)-1H-imidazo[4,5-b]pyrazin-5-yl)thio)-3-chloropyridin-2-yl)azetidine-3-carbonitrile] | < 0.5 | < 1
14 | N[C@@H]1c2cc(F)ccc2CC12CCN(c1nc3nc(Sc4cccn5ccnc45)cnc3[nH]1)CC2 [Example 192, (S)-6-fluoro-1′-(5-(imidazo[1,2-a]pyridin-8-ylthio)-1H-imidazo[4,5-b]pyrazin-2-yl)-1,3-dihydrospiro[indene-2,4′-piperidin]-1-amine] | < 0.5 | 1 to 5

Now from value to compound:

Row | IC50 [1] [µM] | IC50 [2] [µM] | SMILES
15 | < 0.5 | < 1 | N[C@@H]1c2ccccc2CC12CCN(c1nc3ncc(Sc4ccnc5ccccc45)nc3[nH]1)CC2 [Example 176, (S)-1′-(6-(quinolin-4-ylthio)-1H-imidazo[4,5-b]pyrazin-2-yl)-1,3-dihydrospiro[indene-2,4′-piperidin]-1-amine]
16 | < 0.5 | < 1 | COc1cnccc1Sc1cnc2nc(N3CCC4(CC3)Cc3ccccc3[C@H]4N)[nH]c2n1 [Example 177, (S)-1′-(6-((3-methoxypyridin-4-yl)thio)-1H-imidazo[4,5-b]pyrazin-2-yl)-1,3-dihydrospiro[indene-2,4′-piperidin]-1-amine]
17 | < 0.5 | 1 to 5 | N[C@@H]1c2ccccc2CC12CCN(c1nc3ncc(Sc4cccc5[nH]c(=O)oc45)nc3[nH]1)CC2 [Example 178, (S)-7-((2-(1-amino-1,3-dihydrospiro[indene-2,4′-piperidin]-1′-yl)-1H-imidazo[4,5-b]pyrazin-6-yl)thio)benzo[d]oxazol-2(3H)-one]
18 | < 0.5 | < 1 | N[C@@H]1c2ccccc2CC12CCN(c1nc3ncc(Sc4cccc5nccnc45)nc3[nH]1)CC2 [Example 179, (S)-1′-(5-(quinoxalin-5-ylthio)-1H-imidazo[4,5-b]pyrazin-2-yl)-1,3-dihydrospiro[indene-2,4′-piperidin]-1-amine]
19 | < 0.5 | < 1 | N[C@@H]1c2cc(F)ccc2CC12CCN(c1nc3ncc(Sc4ccncc4Cl)nc3[nH]1)CC2 [Example 183, (S)-1′-(6-((3-chloropyridin-4-yl)thio)-1H-imidazo[4,5-b]pyrazin-2-yl)-6-fluoro-1,3-dihydrospiro[indene-2,4′-piperidin]-1-amine]
20 | < 0.5 | < 1 | Nc1cc(Sc2cnc3nc(N4CCC5(CC4)Cc4ccccc4[C@H]5N)[nH]c3n2)c(Cl)cn1 [Example 185, (S)-1′-(6-((2-amino-5-chloropyridin-4-yl)thio)-1H-imidazo[4,5-b]pyrazin-2-yl)-1,3-dihydrospiro[indene-2,4′-piperidin]-1-amine]
